Target: T1, EPHB1 (Homo sapiens, UniProt P54762)
T1 construct: purchased Thermo Fisher Scientific (Life Technologies) SelectScreen
Experiment: SelectScreen Z'LYTE
Assay type: biochemical
Procedure, shortened: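 SelectScreen broad panel; activity (Z'LYTE, Adapta) plus binding formats. ATP: Km app for CSF1R Z'LYTE; 10 for CAMK1 Adapta. Readout = % per kinase.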

T1 sequence (P54762 18-984): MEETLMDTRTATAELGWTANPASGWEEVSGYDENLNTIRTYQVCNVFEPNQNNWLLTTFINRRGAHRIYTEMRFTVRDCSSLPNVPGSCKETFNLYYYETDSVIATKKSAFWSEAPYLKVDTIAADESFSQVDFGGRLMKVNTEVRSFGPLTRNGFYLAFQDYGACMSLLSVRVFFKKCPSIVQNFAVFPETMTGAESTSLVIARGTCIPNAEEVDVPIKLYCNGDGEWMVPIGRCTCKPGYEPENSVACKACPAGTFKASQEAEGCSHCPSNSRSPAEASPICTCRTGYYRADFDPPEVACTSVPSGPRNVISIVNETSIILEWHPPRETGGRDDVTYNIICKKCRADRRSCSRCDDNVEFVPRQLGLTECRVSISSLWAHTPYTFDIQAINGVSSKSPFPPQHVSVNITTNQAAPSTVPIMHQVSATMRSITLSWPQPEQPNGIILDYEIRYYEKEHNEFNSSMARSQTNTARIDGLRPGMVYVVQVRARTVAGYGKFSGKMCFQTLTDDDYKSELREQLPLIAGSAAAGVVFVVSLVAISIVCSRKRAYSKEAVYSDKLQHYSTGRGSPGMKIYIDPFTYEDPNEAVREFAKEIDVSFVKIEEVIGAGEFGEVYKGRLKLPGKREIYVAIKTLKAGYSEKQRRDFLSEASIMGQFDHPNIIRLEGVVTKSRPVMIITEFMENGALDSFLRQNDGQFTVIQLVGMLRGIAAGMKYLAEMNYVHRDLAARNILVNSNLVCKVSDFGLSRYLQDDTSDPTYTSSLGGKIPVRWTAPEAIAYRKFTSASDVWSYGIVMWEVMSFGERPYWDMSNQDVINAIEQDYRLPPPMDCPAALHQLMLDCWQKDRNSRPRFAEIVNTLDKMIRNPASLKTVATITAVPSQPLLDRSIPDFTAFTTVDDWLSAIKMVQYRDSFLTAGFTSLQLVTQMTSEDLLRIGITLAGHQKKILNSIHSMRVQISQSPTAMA

`CN(C(=O)CN1CCOCC1)c1ccc2sc3c(-c4cccc5c(=O)cc(N6CC7CCC(C6)O7)oc45)cccc3c2c1` [NU5455] gave an inhibition at 1 µM of 5.1%.

From publication PMC6934184, “Selective DNA-PKcs inhibition extends the therapeutic index of localized radiotherapy and chemotherapy” (The Journal of Clinical Investigation, 2019)
